Experimental data reported in patent US20260347365A1, “COMPOUND FOR REGULATING AND CONTROLLING 15-PGDH ACTIVITY AND PREPARATION METHOD THEREFOR” (SCINNOHUB PHARMACEUTICAL CO.,LTD, priority 2023, published 2026).

These molecules were tested against T1, 15-PGDH (Homo sapiens, UniProt P15428) (assay: Detection of Activity of 15-PGDH Kinase (inhibition of 15-PGDH enzyme)). Conditions: not given.
T1 construct: purchased Sino Biological Inc. 11205-H08E
T1 sequence (P15428 1-266): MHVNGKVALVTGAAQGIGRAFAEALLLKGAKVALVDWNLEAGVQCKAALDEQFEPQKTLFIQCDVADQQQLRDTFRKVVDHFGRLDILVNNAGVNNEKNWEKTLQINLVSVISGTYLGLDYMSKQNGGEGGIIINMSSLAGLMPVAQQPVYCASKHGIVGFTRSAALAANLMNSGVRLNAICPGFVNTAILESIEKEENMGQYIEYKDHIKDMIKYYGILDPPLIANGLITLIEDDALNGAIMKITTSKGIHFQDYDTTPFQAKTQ
Type: biochemical
Description: • a. A solution of pH 7.5 containing 50 mM Tris-HCl and 0.01% Tween 20 was prepared with ultrapure water as a reaction buffer; • b. a 10 mM mother liquor of the compound to be tested was prepared with DMSO, and then the reaction buffer was used to dilute the mother liquor of the compound to be tested to obtain solution 1 of the compound to be tested at a concentration of 4000 nM, and then the solution 1 of the compound to be tested was serially diluted into solutions 2-10 of the compound to be tested at 9 concentrations with a gradient difference of three-fold. 5 μL of each concentration of solutions 1-10 of the compound to be tested was respectively taken and added into a 384-well plate as test wells; • c. 5 μL of the reaction buffer was added to the 384-well plate as positive control and blank control wells; • d. the reaction buffer was used to prepare a 15-PGDH protein solution at a concentration of 5 ng/μL, 5 μL of the 15-PGDH protein solution was taken and added to the test wells and positive control wells, and 5 μL of the reaction buffer was added to the blank control wells at the same time, then the plate was centrifuged at 2000 rpm for 30 seconds; • e. the reaction buffer was used to prepare 5 mM β-NAD and 2 mM PGF2α, respectively, which were mixed at 1:1 by volume to obtain a substrate mixture, 10 μL of the substrate mixture was taken and added to the test wells, positive control wells and blank control wells to start the reaction; • f. the fluorescence signal value (Ex/Em=340/450) of each well was detected continuously by using a multifunctional microplate reader.
• a) Continuous fluorescence signal values were analyzed by using the “kinetic calculations-slope calculation method” in the PHERAstar Data analysis software to obtain the slope of each test well; • b) the inhibition rate % was calculated by using the following formula:
inhibition rate %=[1−(slope of test well-signal value of positive control well)/(signal value of blank control well-average signal value of positive control well)]×100%. • c) calculation of IC50 and plotting of inhibition rate-dose curves: IC50 values were calculated by fitting compound concentrations and corresponding inhibition rates with a nonlinear regression (dose response-variable slope) via using GraphPad Prism 6.0.
The formula is shown below: Y=Bottom+(Top−Bottom)/(1+10^((Log IC50−X)*HillSlope)), wherein X is a log value of a concentration of the compound, and Y is inhibition rate %.

| IC50 [nM] | Compound |
| --- | --- |
| 2 to 5 | O=C(c1ccc2c(c1)nc(-c1ccc3ocnc3c1)c1nccn12)N1CCCCC1 [Example 2, (4-(benzo[d]oxazol-5-yl)imidazo[1,2-a]quinoxalin-7-yl)(piperidin-1-yl)methanone] |
| 2 to 5 | Cc1cnc2c(-c3ccc4c(c3)CN(C)C4=O)nc3cc(C(=O)N4CCCCC4)ccc3n12 [Example 3, 2-methyl-5-(1-methyl-7-(piperidine-1-carbonyl)imidazo[1,2-a]quinoxalin-4-yl) isoindolin-1-one] |
| < 2 | CN1Cc2cc(C3=Nc4cc(C(=O)N5CCCCC5)ccc4N4CC5(CC5)N=C34)ccc2C1=O [Example 4, 2-methyl-5-(7′-(piperidine-1-carbonyl)-1′H-spiro[cyclopropane-1,2′-imidazo[1,2-a]quinoxaline]-4′-yl) isoindolin-1-one] |
| 5 to 10 | CN1Cc2cc(-c3nc4cc(C(=O)N5CCCCC5)ccc4n4cnnc34)ccc2C1=O [Example 5, 2-methyl-5-(7-(piperidine-1-carbonyl)-[1,2,4]triazolo[4,3-a]quinoxalin-4-yl) isoindolin-1-one] |

Same assay, conditions: class symbols; substrates β-NAD and PGF2α, pH 7.5, fluorescence Ex/Em=340/450; read-out: IC50

| IC50 [nM] | Compound |
| --- | --- |
| < 2 | CN1Cc2cc(-c3nc4cc(C(=O)N5CCCCC5)ccc4n4ccnc34)ccc2C1=O [Example 6] |
| < 2 | Cn1ccc2cc(-c3nc4cc(C(=O)N5CCCCC5)ccc4n4ccnc34)ccc2c1=O [Example 20] |
| 5 to 10 | O=C1OCc2cc(-c3nc4cc(C(=O)N5CCCCC5)ccc4n4ccnc34)ccc21 [Example 31] |
| < 2 | Cc1cn2c(n1)c(-c1ccc3c(c1)CN(C)C3=O)nc1cc(C(=O)N3CCCCC3)ccc12 [Example 34] |
| < 2 | CN1Cc2cc(C3=Nc4cc(C(=O)N5CCCCC5)ccc4N4CCN=C34)ccc2C1=O [Example 35] |
| < 2 | CC1CN2C(=N1)C(c1ccc3c(c1)CN(C)C3=O)=Nc1cc(C(=O)N3CCCCC3)ccc12 (centres unmarked) [Example 36] |
| < 2 | CC1CN=C2C(c3ccc4c(c3)CN(C)C4=O)=Nc3cc(C(=O)N4CCCCC4)ccc3N21 (centres unmarked) [Example 37] |
| 2 to 5 | CN1Cc2cc(-c3nc4cc(C(=O)N5CCC(F)CC5)ccc4n4ccnc34)ccc2C1=O [Example 38] |
| 50 to 100 | CN1Cc2cc(-c3nc4cc(C(=O)N5CCCC5)ccc4n4ccnc34)ccc2C1=O [Example 40] |
| < 2 | CN1Cc2cc(C3=Nc4cc(C(=O)N5CCCCC5)ccc4N4CC(C)(C)N=C34)ccc2C1=O [Example 41] |
| 5 to 10 | CC(C)C1CN2C(=N1)C(c1ccc3c(c1)CN(C)C3=O)=Nc1cc(C(=O)N3CCCCC3)ccc12 (centres unmarked) [Example 43] |
| 5 to 10 | CC(C)CC1CN2C(=N1)C(c1ccc3c(c1)CN(C)C3=O)=Nc1cc(C(=O)N3CCCCC3)ccc12 (centres unmarked) [Example 44] |
| 5 to 10 | CN1Cc2cc(C3=Nc4cc(C(=O)N5CCCCC5)ccc4N4CC(C(C)(C)C)N=C34)ccc2C1=O (centres unmarked) [Example 45] |
| 2 to 5 | CN1Cc2cc(-c3nc4cc(C(=O)N5CCCCC5)ccc4c4nccn34)ccc2C1=O [Example 46, 2-methyl-5-(8-(piperidine-1-carbonyl)imidazo[1,2-c]quinazolin-5-yl) isoindolin-1-one] |
| 2 to 5 | O=C(c1ccc2c(c1)nc(-c1ccc3c(c1)CCN3)n1ccnc21)N1CCCCC1 [Example 47] |
| 2 to 5 | Cn1cc(-c2nc3cc(C(=O)N4CCCCC4)ccc3c3nccn23)cn1 [Example 53] |
| 5 to 10 | O=C(c1ccc2c(c1)nc(-c1ccc3c(c1)OCCO3)n1ccnc21)N1CCCCC1 [Example 60] |
| 5 to 10 | Cn1ccc(-c2nc3cc(C(=O)N4CCCCC4)ccc3c3nccn23)cc1=O [Example 61] |
| 2 to 5 | Cn1ncc2cc(-c3nc4cc(C(=O)N5CCCCC5)ccc4c4nccn34)ccc21 [Example 69] |
| < 2 | Cn1ccc2cc(-c3nc4cc(C(=O)N5CCCCC5)ccc4c4nccn34)ccc2c1=O [Example 73] |
| 100 to 1000 | CN1Cc2cc(-c3nc4ccc(C(=O)N5CCCCC5)cc4c4nccn34)ccc2C1=O [Example 75] |
| < 2 | CN1Cc2cc(-c3nc4cc(C(=O)N5CCCCC5)ccc4c4ncnn34)ccc2C1=O [Example 76] |
| < 2 | Cc1nc2c3ccc(C(=O)N4CCCCC4)cc3nc(-c3ccc4c(c3)CN(C)C4=O)n2n1 [Example 77] |
| 2 to 5 | CC(C)c1nc2c3ccc(C(=O)N4CCCCC4)cc3nc(-c3ccc4c(c3)CN(C)C4=O)n2n1 [Example 78] |
| 2 to 5 | CN1Cc2cc(-c3nc4cc(C(=O)N5CCCCC5)ccc4c4nc(C(F)(F)F)nn34)ccc2C1=O [Example 79] |
| < 2 | CN1Cc2cc(-c3nc4cc(C(=O)N5CCCCC5)ccc4c4cccn34)ccc2C1=O [Example 80] |
| < 2 | CN1Cc2cc(-c3nc4cc(C(=O)N5CCCCC5)ccc4c4ccnn34)ccc2C1=O [Example 81] |
| 5 to 10 | CN1Cc2cc(C3=Nc4cc(C(=O)N5CCCCC5)ccc4C4=NCCN34)ccc2C1=O [Example 82] |

The remaining lines, values behind:

| Compound | IC50 [nM] |
| --- | --- |
| Nc1ncc(-c2nc3cc(C(=O)N4CCCCC4)ccc3n3ccnc23)cn1 [Example 7] | 2 to 5 |
| O=C(c1ccc2c(c1)nc(-c1cncnc1)c1nccn12)N1CCCCC1 [Example 8] | 5 to 10 |
| O=C(c1ccc2c(c1)nc(-c1ccc3ncsc3c1)c1nccn12)N1CCCCC1 [Example 10] | 5 to 10 |
| O=C(c1ccc2c(c1)nc(-c1ccccc1)c1nccn12)N1CCC(F)(F)CC1 [Example 16] | 100 to 1000 |
| O=C(c1ccc2c(c1)nc(-c1ccccc1)c1nccn12)N1CCOCC1 [Example 17] | 100 to 1000 |
| Cn1cc(-c2nc3cc(C(=O)N4CCCCC4)ccc3n3ccnc23)ccc1=O [Example 18] | 10 to 20 |
| O=C(c1ccc2c(c1)nc(-c1ccc3nccnc3c1)c1nccn12)N1CCCCC1 [Example 19] | 5 to 10 |
| Cn1cc2cc(-c3nc4cc(C(=O)N5CCCCC5)ccc4n4ccnc34)ccc2n1 [Example 21] | < 2 |
| Cn1ccc2cc(-c3nc4cc(C(=O)N5CCCCC5)ccc4n4ccnc34)cnc21 [Example 23] | 2 to 5 |
| Cn1ncc2cc(-c3nc4cc(C(=O)N5CCCCC5)ccc4n4ccnc34)ccc21 [Example 24] | 2 to 5 |
| O=C(c1ccc2c(c1)nc(-c1ccc3ncnn3c1)c1nccn12)N1CCCCC1 [Example 27] | 5 to 10 |
| O=C(c1ccc2c(c1)nc(-c1ccc3[nH]c(=O)[nH]c3c1)c1nccn12)N1CCCCC1 [Example 29] | < 2 |
| CCOC(=O)c1cn2cc(-c3nc4cc(C(=O)N5CCCCC5)ccc4n4ccnc34)ccc2n1 [Example 30] | 5 to 10 |
| O=C(O)c1ccc(-c2nc3cc(C(=O)N4CCCCC4)ccc3n3ccnc23)cc1 [Example 33] | < 2 |
| CCOC(=O)c1ccc(-c2nc3cc(C(=O)N4CCCCC4)ccc3n3ccnc23)cc1 [Example 42] | 5 to 10 |
| N#Cc1ccc(-c2nc3cc(C(=O)N4CCCCC4)ccc3c3nccn23)cn1 [Example 50] | 5 to 10 |
| CN(C)c1ncc(-c2nc3cc(C(=O)N4CCCCC4)ccc3c3nccn23)cn1 [Example 52] | 5 to 10 |
| O=C(c1ccc2c(c1)nc(-c1ccc3ncsc3c1)n1ccnc21)N1CCCCC1 [Example 54] | < 2 |
| Nc1ncc(-c2nc3cc(C(=O)N4CCCCC4)ccc3c3nccn23)cn1 [Example 56] | < 2 |
| O=C(c1ccc2c(c1)nc(-c1cccnc1)n1ccnc21)N1CCCCC1 [Example 57] | 2 to 5 |
| O=C(c1ccc2c(c1)nc(-c1ccc3nccn3c1)n1ccnc21)N1CCCCC1 [Example 59] | 5 to 10 |
| Cn1ccc2cc(-c3nc4cc(C(=O)N5CCCCC5)ccc4c4nccn34)cnc21 [Example 62] | < 2 |
| O=C(c1ccc2c(c1)nc(-c1ccc3nccnc3c1)n1ccnc21)N1CCCCC1 [Example 67] | 2 to 5 |
| CCOC(=O)c1cc2cc(-c3nc4cc(C(=O)N5CCCCC5)ccc4c4nccn34)ccc2[nH]1 [Example 72] | 5 to 10 |
